For one assay, the target named is GSK3β (H350L) (Homo sapiens (Human), UniProt P49841). Conditions: read-out: GSK3β Ki.
In assay [1] the target is CDK2/Cyclin E1 full length (Homo sapiens (Human), UniProt P24941). The assay can be described thus: CDK2/Cyclin E1 full length mobility shift assay. It is filed as biochemical.

Chain of GSK3β (H350L) (P49841 whole entry, stated change not applied): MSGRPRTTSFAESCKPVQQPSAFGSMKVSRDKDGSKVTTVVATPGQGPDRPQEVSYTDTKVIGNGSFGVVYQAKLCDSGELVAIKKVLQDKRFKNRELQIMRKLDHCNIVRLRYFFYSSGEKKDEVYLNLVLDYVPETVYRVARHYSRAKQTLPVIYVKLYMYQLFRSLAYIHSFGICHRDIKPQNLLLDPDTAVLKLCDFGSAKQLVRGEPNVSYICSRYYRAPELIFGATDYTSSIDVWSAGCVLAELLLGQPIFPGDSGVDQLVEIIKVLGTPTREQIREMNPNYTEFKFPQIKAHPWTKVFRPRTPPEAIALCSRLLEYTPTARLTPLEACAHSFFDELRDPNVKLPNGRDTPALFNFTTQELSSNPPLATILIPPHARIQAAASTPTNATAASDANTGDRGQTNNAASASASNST
Protocol for GSK3β (H350L): The assay was initiated with the addition of ATP, following 15 minutes pre-incubation of enzyme and inhibitor at room temperature in the reaction mixture. The reaction was stopped after 30 minutes at room temperature by the addition of 50 μL of 80 mM EDTA.

Consider `C[C@H]1[C@H](O)CN1C(=O)O[C@@H]1CC[C@H](c2cc(NC(=O)Cc3cc(F)cc(F)c3)n[nH]2)C1` [Example 617, (1R,3S)-3-(3-{[(3,5-difluorophenyl)acetyl]amino}-1H-pyrazol-5-yl)cyclopentyl (2S,3R)-3-hydroxy-2-methylazetidine-1-carboxylate], for which the Ki on GSK3β (H350L) is 7.18 nM; in assay [1], 0.27 nM.

For `CO[C@@H]1CN(C(=O)O[C@@H]2CC[C@H](c3cc(NC(=O)Cc4cc(C)no4)n[nH]3)C2)[C@H]1C` [Example 618, (1R,3S)-3-(3-{[(3-methyl-1,2-oxazol-5-yl)acetyl]amino}-1H-pyrazol-5-yl)cyclopentyl (2S,3R)-3-methoxy-2-methylazetidine-1-carboxylate], the Ki at GSK3β (H350L) came out at 8.57 nM; in assay [1], 0.78 nM.

For the molecule `COc1cc(CC(=O)Nc2cc([C@H]3CC[C@@H](OC(=O)N4C[C@@H](OC)[C@@H]4C)C3)[nH]n2)ccn1` [Example 619, (1R,3S)-3-(3-{[(2-methoxypyridin-4-yl)acetyl]amino}-1H-pyrazol-5-yl)cyclopentyl (2S,3R)-3-methoxy-2-methylazetidine-1-carboxylate], the Ki on GSK3β (H350L) was determined as 5.75 nM; in assay [1], 0.42 nM.

In the case of `COc1ccc(CC(=O)Nc2cc([C@H]3CC[C@@H](OC(=O)N4C[C@@H](OC)[C@@H]4C)C3)[nH]n2)cn1` [Example 621, (1R,3S)-3-(3-{[(6-methoxypyridin-3-yl)acetyl]amino}-1H-pyrazol-5-yl)cyclopentyl (2S,3R)-3-methoxy-2-methylazetidine-1-carboxylate], the Ki on GSK3β (H350L) turned out to be 2.77 nM; in assay [1], 0.36 nM.

Consider `Cc1ncc(CC(=O)Nc2cc([C@H]3CC[C@@H](OC(=O)N4C[C@@](C)(O)[C@@H]4C)C3)[nH]n2)s1` [Example 623, (1R,3S)-3-(3-{[(2-methyl-1,3-thiazol-5-yl)acetyl]amino}-1H-pyrazol-5-yl)cyclopentyl (2S,3R)-3-hydroxy-2,3-dimethylazetidine-1-carboxylate], for which the Ki on GSK3β (H350L) was determined as 6.31 nM; in assay [1], 1.17 nM.

As to `COc1cc(CC(=O)Nc2cc([C@@H]3CC[C@H](OC(=O)N4C[C@@](C)(O)[C@@H]4C)C3)[nH]n2)ccn1` [Example 624, (1S,3R)-3-(3-{[(2-methoxypyridin-4-yl)acetyl]amino}-1H-pyrazol-5-yl)cyclopentyl (2S,3R)-3-hydroxy-2,3-dimethylazetidine-1-carboxylate], the results for the Ki (on GSK3β (H350L); in assay [1]) were 16.3 nM and 4.18 nM, respectively.

As for `COc1cc(CC(=O)Nc2cc([C@H]3CC[C@@H](OC(=O)N4C[C@@](C)(O)[C@@H]4C)C3)[nH]n2)ccn1` [Example 625, (1R,3S)-3-(3-{[(2-methoxypyridin-4-yl)acetyl]amino}-1H-pyrazol-5-yl)cyclopentyl (2S,3R)-3-hydroxy-2,3-dimethylazetidine-1-carboxylate], the Ki was 4.97 nM on GSK3β (H350L) and 0.45 nM in assay [1].

Take `COc1ccc(CC(=O)Nc2cc([C@H]3CC[C@@H](OC(=O)N4C[C@@](C)(O)[C@@H]4C)C3)[nH]n2)cn1` [Example 627, (1R,3S)-3-(3-{[(6-methoxypyridin-3-yl)acetyl]amino}-1H-pyrazol-5-yl)cyclopentyl (2S,3R)-3-hydroxy-2,3-dimethylazetidine-1-carboxylate]: the Ki at GSK3β (H350L) is 2.76 nM; in assay [1], 0.51 nM.

For `C[C@H]1CCCN1C(=O)O[C@@H]1CC[C@H](c2cc(NC(=O)Cc3ccon3)n[nH]2)C1` [Example 628, (1R,3S)-3-{3-[(1,2-oxazol-3-ylacetyl)amino]-1H-pyrazol-5-yl}cyclopentyl (2S)-2-methylpyrrolidine-1-carboxylate], the results for the Ki (at GSK3β (H350L); in assay [1]) were 20.8 nM and 0.92 nM, respectively.

Turning to `C[C@H]1CCCN1C(=O)O[C@@H]1CC[C@H](c2cc(NC(=O)Cc3cnco3)n[nH]2)C1` [Example 629, (1R,3S)-3-{3-[(1,3-oxazol-5-ylacetyl)amino]-1H-pyrazol-5-yl}cyclopentyl (2S)-2-methylpyrrolidine-1-carboxylate], the Ki amounted to 10.6 nM on GSK3β (H350L) and 0.4 nM in assay [1].

As to `Cc1cc(CC(=O)Nc2cc([C@H]3CC[C@@H](OC(=O)N4CCC[C@@H]4C)C3)[nH]n2)on1` [Example 632, (1R,3S)-3-(3-{[(3-methyl-1,2-oxazol-5-yl)acetyl]amino}-1H-pyrazol-5-yl)cyclopentyl (2S)-2-methylpyrrolidine-1-carboxylate], the results for the Ki (on GSK3β (H350L); in assay [1]) were 12.7 nM and 0.36 nM, respectively.

On to `Cc1cc(CC(=O)Nc2cc([C@H]3CC[C@@H](OC(=O)N4CCC[C@@H]4C)C3)[nH]n2)no1` [Example 634, (1R,3S)-3-(3-{[(5-methyl-1,2-oxazol-3-yl)acetyl]amino}-1H-pyrazol-5-yl)cyclopentyl (2S)-2-methylpyrrolidine-1-carboxylate], for which the Ki on GSK3β (H350L) was found to be 14.4 nM; in assay [1], 0.99 nM.

As for `Cc1cnc(CC(=O)Nc2cc([C@H]3CC[C@@H](OC(=O)N4CCC[C@@H]4C)C3)[nH]n2)o1` [Example 635, (1R,3S)-3-(3-{[(5-methyl-1,3-oxazol-2-yl)acetyl]amino}-1H-pyrazol-5-yl)cyclopentyl (2S)-2-methylpyrrolidine-1-carboxylate], the Ki came to 16.3 nM on GSK3β (H350L) and 0.53 nM in assay [1].

As for `Cc1cc(CC(=O)Nc2cc([C@H]3CC[C@@H](OC(=O)N4[C@@H](C)CC[C@@H]4C)C3)[nH]n2)on1` [Example 638, (1R,3S)-3-(3-{[(3-methyl-1,2-oxazol-5-yl)acetyl]amino}-1H-pyrazol-5-yl)cyclopentyl (2S,5S)-2,5-dimethylpyrrolidine-1-carboxylate], the Ki at GSK3β (H350L) came out at 14.9 nM; in assay [1], 0.28 nM.

As to `Cn1ccc(CC(=O)Nc2cc([C@H]3CC[C@@H](OC(=O)N4CCCC4(C)C)C3)[nH]n2)n1` [Example 639, (1R,35)-3-(3-{[(1-methyl-1H-pyrazol-3-yl)acetyl]amino}-1H-pyrazol-5-yl)cyclopentyl 2,2-dimethylpyrrolidine-1-carboxylate], the Ki on GSK3β (H350L) is 6.34 nM; in assay [1], 0.47 nM.

Regarding `Cc1cc(CC(=O)Nc2cc([C@H]3CC[C@@H](OC(=O)N4CCCC[C@H]4C)C3)[nH]n2)on1` [Example 641, (1R,3S)-3-(3-{[(3-methyl-1,2-oxazol-5-yl)acetyl]amino}-1H-pyrazol-5-yl)cyclopentyl (2R)-2-methylpiperidine-1-carboxylate], the Ki amounted to 14.4 nM on GSK3β (H350L) and 0.59 nM in assay [1].

`Cc1cc(CC(=O)Nc2cc([C@H]3CC[C@@H](OC(=O)N4CCOC[C@@H]4C)C3)[nH]n2)on1` [Example 642, (1R,3S)-3-(3-{[(3-methyl-1,2-oxazol-5-yl)acetyl]amino}-1H-pyrazol-5-yl)cyclopentyl (3S)-3-methylmorpholine-4-carboxylate]: the Ki on GSK3β (H350L) worked out at 10.3 nM; in assay [1], 1.37 nM.

As for `C[C@H]1COCCN1C(=O)O[C@@H]1CC[C@H](c2cc(NC(=O)Cc3cc(F)cc(F)c3)n[nH]2)C1` [Example 644, (1R,3S)-3-(3-{[(3,5-difluorophenyl)acetyl]amino}-1H-pyrazol-5-yl)cyclopentyl (3S)-3-methylmorpholine-4-carboxylate], the Ki amounted to 8.71 nM at GSK3β (H350L) and 0.33 nM in assay [1].

`C[C@@H]1COCCN1C(=O)O[C@@H]1CC[C@H](c2cc(NC(=O)Cc3cc(F)cc(F)c3)n[nH]2)C1` [Example 645, (1R,3S)-3-(3-{[(3,5-difluorophenyl)acetyl]amino}-1H-pyrazol-5-yl)cyclopentyl (3R)-3-methylmorpholine-4-carboxylate]: the Ki on GSK3β (H350L) was determined as 7.23 nM; in assay [1], 0.37 nM.

Broadly, the Ki is a measure of affinity in units of concentration, obtained from inhibition or displacement.
